Experimental data published in ChEMBL document CHEMBL1201862, “PubChem BioAssay data set” (2004).
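Results reflect a 48-hour exposure of cells in 96-well plates to compound at five concentrations. GI50 marks 50% less growth.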 Active and inactive are the calls of the source. Cut-off read from the data, not from the text of the source: active = GI50 up to about 1.1 µM and inactive = higher.

Tests used:
Assay in all cases: NCI-60 cell line screen, 48 h
[1] = test system: A498
[2] = test system: SF-539
[3] = test system: MDA-MB-231
[4] = test system: SK-OV-3
[5] = test system: NCI-H226
[6] = test system: K562
[7] = test system: OVCAR-3
[8] = test system: SK-MEL-5
[9] = test system: HCC 2998
[10] = test system: HOP-62
[11] = test system: SNB-19
[12] = test system: SW-620
[13] = test system: HL-60
[14] = test system: Hs-578T
[15] = test system: MDA-MB-435
[16] = test system: OVCAR-5
[17] = test system: MDA-N
[18] = test system: SN12C
[19] = test system: RXF 393

## COc1cc(O)c2c(c1)C(=O)c1cc3c(c(O)c1C2=O)C(OC1OC(C)C(OC)C(O)C1OC)C(OC)C(C)(O)C3=O (stereo unspecified)
[1]
  GI50: 5.53 µM (inactive)
[2]
  GI50: 3.92 µM (inactive)
[3]
  GI50: 4.44 µM (inactive)
[4]
  GI50: 13.3 µM (inactive)
[5]
  GI50: 2.59 µM (inactive)
[6]
  GI50: 3.58 µM (inactive)
[7]
  GI50: 2.84 µM (inactive)
[8]
  GI50: 1.68 µM (inactive)
[9]
  GI50: 5.02 µM (inactive)
[10]
  GI50: 5.46 µM (inactive)
[11]
  GI50: 6.53 µM (inactive)
[12]
  GI50: 3.6 µM (inactive)
[13]
  GI50: 2.79 µM (inactive)
[14]
  GI50: 8.47 µM (inactive)
[15]
  GI50: 3.8 µM (inactive)
[16]
  GI50: 16.1 µM (inactive)

## CC1CCCc2c(CC3CC(=O)NC(=O)C3)nc(N)nc21 (stereo unspecified)
[1]
  GI50: > 100 µM (inactive)
[2]
  GI50: > 100 µM (inactive)
[17]
  GI50: > 100 µM (inactive)
[3]
  GI50: > 100 µM (inactive)
[4]
  GI50: > 100 µM (inactive)
[5]
  GI50: > 100 µM (inactive)
[6]
  GI50: > 100 µM (inactive)
[7]
  GI50: > 100 µM (inactive)
[8]
  GI50: > 100 µM (inactive)
[9]
  GI50: > 100 µM (inactive)
[10]
  GI50: > 100 µM (inactive)
[12]
  GI50: > 100 µM (inactive)
[13]
  GI50: 2.21 µM (inactive)
[15]
  GI50: > 100 µM (inactive)
[18]
  GI50: > 100 µM (inactive)
[19]
  GI50: > 100 µM (inactive)
[16]
  GI50: > 100 µM (inactive)

## COc1ccc2c(c1OC(C)=O)C1=CC(=O)CCC13CCNC3C2 (stereo unspecified)
[17]
  GI50: > 100 µM (inactive)
[3]
  GI50: > 100 µM (inactive)
[4]
  GI50: > 100 µM (inactive)
[5]
  GI50: > 100 µM (inactive)
[6]
  GI50: > 100 µM (inactive)
[7]
  GI50: > 100 µM (inactive)
[8]
  GI50: > 100 µM (inactive)
[9]
  GI50: > 100 µM (inactive)
[10]
  GI50: > 100 µM (inactive)
[11]
  GI50: > 100 µM (inactive)
[12]
  GI50: > 100 µM (inactive)
[13]
  GI50: > 100 µM (inactive)
[14]
  GI50: > 100 µM (inactive)
[15]
  GI50: > 100 µM (inactive)
[18]
  GI50: > 100 µM (inactive)
[19]
  GI50: > 100 µM (inactive)
[16]
  GI50: > 100 µM (inactive)

## N#CC1=C(N)Nc2nc3ccccc3n2C1c1ccccc1 (stereo unspecified)
[1]
  GI50: 21.6 µM (inactive)
[2]
  GI50: > 100 µM (inactive)
[3]
  GI50: 45.9 µM (inactive)
[4]
  GI50: 83.4 µM (inactive)
[6]
  GI50: 59.7 µM (inactive)
[7]
  GI50: 30.5 µM (inactive)
[8]
  GI50: 37.6 µM (inactive)
[10]
  GI50: 88.1 µM (inactive)
[11]
  GI50: > 100 µM (inactive)
[12]
  GI50: 55.6 µM (inactive)
[13]
  GI50: > 100 µM (inactive)
[14]
  GI50: 24.7 µM (inactive)
[15]
  GI50: 45.6 µM (inactive)
[18]
  GI50: > 100 µM (inactive)
[19]
  GI50: 16.1 µM (inactive)
[16]
  GI50: > 100 µM (inactive)

## COc1ccc([N+](=O)[O-])cc1[I+]c1cc([N+](=O)[O-])ccc1OC
[1]
  GI50: 81.5 µM (inactive)
[2]
  GI50: 44 µM (inactive)
[3]
  GI50: > 100 µM (inactive)
[4]
  GI50: 29.4 µM (inactive)
[5]
  GI50: 53.2 µM (inactive)
[6]
  GI50: 35 µM (inactive)
[7]
  GI50: 54.1 µM (inactive)
[8]
  GI50: 12.4 µM (inactive)
[9]
  GI50: 42.2 µM (inactive)
[10]
  GI50: > 100 µM (inactive)
[11]
  GI50: 34.9 µM (inactive)
[12]
  GI50: 45.3 µM (inactive)
[13]
  GI50: 20.7 µM (inactive)
[14]
  GI50: 91.6 µM (inactive)
[15]
  GI50: 21.3 µM (inactive)
[18]
  GI50: 43.5 µM (inactive)
[19]
  GI50: 27.7 µM (inactive)
[16]
  GI50: > 100 µM (inactive)

## CC(C)C[C@H](NC(=O)[C@@H](N)Cc1cccc2ccccc12)B(O)O
[1]
  GI50: < 0.0189 µM (active)
[2]
  GI50: 0.0143 µM (active)
[17]
  GI50: 0.182 µM (active)
[3]
  GI50: 0.0354 µM (active)
[4]
  GI50: 0.0703 µM (active)
[5]
  GI50: < 0.0132 µM (active)
[7]
  GI50: < 0.0149 µM (active)
[8]
  GI50: < 0.0169 µM (active)
[9]
  GI50: 0.173 µM (active)
[10]
  GI50: 0.0575 µM (active)
[11]
  GI50: 2.47 µM (inactive)
[12]
  GI50: < 0.015 µM (active)
[15]
  GI50: < 0.0134 µM (active)
[18]
  GI50: 0.0426 µM (active)
[19]
  GI50: < 0.017 µM (active)
[16]
  GI50: 0.0272 µM (active)

## O=C(O)C(F)(OC(F)(F)C(F)(F)C(F)(F)F)C(F)(F)F (stereo unspecified)
[1]
  GI50: > 100 µM (inactive)
[2]
  GI50: > 100 µM (inactive)
[3]
  GI50: > 100 µM (inactive)
[4]
  GI50: > 100 µM (inactive)
[5]
  GI50: > 100 µM (inactive)
[6]
  GI50: > 100 µM (inactive)
[7]
  GI50: > 100 µM (inactive)
[8]
  GI50: > 100 µM (inactive)
[9]
  GI50: > 100 µM (inactive)
[10]
  GI50: > 100 µM (inactive)
[11]
  GI50: > 100 µM (inactive)
[12]
  GI50: > 100 µM (inactive)
[13]
  GI50: > 100 µM (inactive)
[14]
  GI50: > 100 µM (inactive)
[15]
  GI50: > 100 µM (inactive)
[18]
  GI50: > 100 µM (inactive)
[19]
  GI50: > 100 µM (inactive)
[16]
  GI50: > 100 µM (inactive)

## COC(=O)C1=C(N)C2=C(N)Oc3ccccc3C2CC1=C(C#N)C#N (stereo unspecified)
[1]
  GI50: 25.8 µM (inactive)
[2]
  GI50: 43.6 µM (inactive)
[3]
  GI50: 17.5 µM (inactive)
[4]
  GI50: 31.4 µM (inactive)
[5]
  GI50: 44.3 µM (inactive)
[6]
  GI50: 19.6 µM (inactive)
[7]
  GI50: 25.6 µM (inactive)
[8]
  GI50: 25.8 µM (inactive)
[9]
  GI50: 17.9 µM (inactive)
[10]
  GI50: 33.5 µM (inactive)
[11]
  GI50: 18.6 µM (inactive)
[12]
  GI50: 33.7 µM (inactive)
[13]
  GI50: 29.2 µM (inactive)
[14]
  GI50: 27.9 µM (inactive)
[15]
  GI50: 34.8 µM (inactive)
[18]
  GI50: 29 µM (inactive)
[19]
  GI50: 26 µM (inactive)
[16]
  GI50: 27.9 µM (inactive)
